IC50 data for 18 compounds are collected here from patent US9090605B2, “Substituted 5-,6- and 7-membered heterocycles, medicaments containing such compounds, and their use” (Vitae Pharmaceuticals, Inc., priority 2010, dated 2015).

pIC50: −log10 of the molar value.

In this assay the target is 11β-HSD1 (Homo sapiens, UniProt P28845). The assay is described as follows: In vitro inhibition of 11β-HSD1, HTRF detection of cortisol generated by human liver microsomes (biological test example 1). Format: biochemical. Set-up: detecting cortisol generated from cortisterone by human liver microsomes; from tissue; host or cells: human liver microsomes. The conditions noted are these: 1 hour at 37° C., cortisone 80 nM, NADPH 200 μM, read-out: IC50, inhibitory activity on 11β-HSD 1. As for the experimental part: Briefly, compounds were incubated for 1 hour at 37° C. in Tris buffer (20 mM tris, 5 mM EDTA, pH 6.0) containing NADPH (200 μM) and cortisone (80 nM). Cortisol generated in the reaction was then detected with a competitive immunoassay, involving two HTRF conjugates: cortisol linked to XL665 and anti-cortisol antibody labeled with Europium cryptate. The incubation period for detection reaction was typically 2 hours. The amount of cortisol was determined by reading the time-resolved fluorescence of the wells (Ex 320/75 nm; Em 615/8.5 nm and 665/7.5 nm). The ratio of the two emission signals was then calculated (Em665*10000/Em615). […] Each assay also contained a calibration curve with cortisol to transform the fluorescent data into cortisol concentrations. Percent inhibition (% CTL) of each compound was determined relative to the carbenoxolone signal and IC50 curves were generated.
Chain of 11β-HSD1 (P28845 whole entry): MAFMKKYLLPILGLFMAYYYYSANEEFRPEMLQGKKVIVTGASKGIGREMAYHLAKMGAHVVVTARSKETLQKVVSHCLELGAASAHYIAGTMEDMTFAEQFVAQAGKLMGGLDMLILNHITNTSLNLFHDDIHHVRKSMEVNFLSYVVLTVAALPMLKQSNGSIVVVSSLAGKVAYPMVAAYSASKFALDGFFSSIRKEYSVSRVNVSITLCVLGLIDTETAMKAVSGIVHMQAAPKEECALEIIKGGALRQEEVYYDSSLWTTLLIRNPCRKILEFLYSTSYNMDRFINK
In general terms: Time-resolved FRET reads energy transfer from a long-lived donor to a nearby acceptor.
A word on the pIC50: it is −log10 of the IC50, conventionally taken in molar units. Take `C[C@@H](c1ccc(-c2ccc(C3(O)CCN(C)C3=O)nc2)cc1)N1CC[C@](CC(C)(C)O)(c2ccccc2)OC1=O` (stereo partly drawn) [Example 56, 3-((S)-1-{4-[6-(3-Hydroxy-1-methyl-2-oxo-pyrrolidin-3-yl)-pyridin-3-yl]-phenyl}-ethyl)-(S)-6-(2-hydroxy-2-methyl-propyl)-6-phenyl-[1,3]oxazinan-2-one]: the pIC50 is 7.23.

As to `CCOC(=O)C1(c2ccc(-c3ccc([C@H](C)N4CC[C@](CC(C)(C)O)(c5ccccc5)OC4=O)cc3)nn2)CC1` [Example 7, 1-[6-(4-{(S)-1-[(S)-6-(2-Hydroxy-2-methyl-propyl)-2-oxo-6-phenyl-[1,3]oxazinan-3-yl]-ethyl}-phenyl)-pyridazin-3-yl]-cyclopropanecarboxylic acid ethyl ester], the negative-log IC50 (pIC50) is 7.39.

Regarding `C[C@@H](c1ccc(-c2ccc(C3(C#N)CC3)nc2)cc1)N1CC[C@](CC(C)(C)O)(c2ccccc2)OC1=O` [Example 2, 1-[5-(4-{(S)-1-[(S)-6-(2-Hydroxy-2-methyl-propyl)-2-oxo-6-phenyl-[1,3]oxazinan-3-yl]-ethyl}-phenyl)-pyridin-2-yl]-cyclopropanecarbonitrile], the negative logarithm of the IC50 (pIC50) was 7.17.

Turning to `C[C@@H](c1ccc(-c2cnn([C@@H]3CCOC3)c2)cc1)N1CC[C@](CC(C)(C)O)(c2ccccc2)OC1=O` [Example 15, (S)-6-(2-Hydroxy-2-methyl-propyl)-6-phenyl-3-((S)-1-{4-[1-((R)-tetrahydro-furan-3-yl)-1H-pyrazol-4-yl]-phenyl}-ethyl)-[1,3]oxazinan-2-one], the pIC50 was 7.57.

With `C[C@@H](c1ccc(-c2ccn([C@@H]3CCOC3)c(=O)c2)cc1)N1CC[C@](CC(C)(C)O)(c2ccccc2)OC1=O` [Example 12, (S)-6-(2-Hydroxy-2-methyl-propyl)-3-((S)-1-{4-[2-oxo-1-((R)-tetrahydro-furan-3-yl)-1,2-dihydro-pyridin-4-yl]-phenyl}-ethyl)-6-phenyl-[1,3]oxazinan-2-one], the negative-log IC50 (pIC50) is 7.04.

On to `C[C@@H](c1ccc(-c2ccc(C3(O)COC3)cc2)cc1)N1CC[C@](CC(C)(C)O)(c2ccccc2)OC1=O` [Example 1, (S)-6-(2-Hydroxy-2-methyl-propyl)-3-{(S)-1-[4′-(3-hydroxy-oxetan-3-yl)-biphenyl-4-yl]-ethyl}-6-phenyl-[1,3]oxazinan-2-one], for which the negative logarithm of the IC50 (pIC50) is 7.25.

Turning to `C[C@@H](c1ccc(-c2ccnc(C3(S(C)(=O)=O)CC3)c2)cc1)N1CC[C@](CC(C)(C)O)(c2ccccc2)OC1=O` [Example 21, (S)-6-(2-Hydroxy-2-methyl-propyl)-3-((S)-1-{4-[2-(1-methanesulfonyl-cyclopropyl)-pyridin-4-yl]-phenyl}-ethyl)-6-phenyl-[1,3]oxazinan-2-one], the pIC50 was 7.28.

`C[C@@H](c1ccc(-c2ccc(C3(C(N)=O)CC3)nn2)cc1)N1CC[C@](CC(C)(C)O)(c2ccccc2)OC1=O` [Example 9, 1-[6-(4-{(S)-1-[(S)-6-(2-Hydroxy-2-methyl-propyl)-2-oxo-6-phenyl-[1,3]oxazinan-3-yl]-ethyl}-phenyl)-pyridazin-3-yl]-cyclopropanecarboxylic acid amide]: the pIC50 is 7.17.

Take `C[C@@H](c1ccc(-c2cccc(C3(C(N)=O)CC3)n2)cc1)N1CC[C@](CC(C)(C)O)(c2ccccc2)OC1=O` [Example 22, 1-[6-(4-{(S)-1-[(S)-6-(2-Hydroxy-2-methyl-propyl)-2-oxo-6-phenyl-[1,3]oxazinan-3-yl]-ethyl}-phenyl)-pyridin-2-yl]-cyclopropanecarboxylic acid amide]: the negative-log IC50 (pIC50) was 7.07.

Consider `C[C@@H](c1ccc(-c2ccc(C3(C#N)CC3)nn2)cc1)N1CC[C@](CC(C)(C)O)(c2ccccc2)OC1=O` [Example 4, 1-[6-(4-{(S)-1-[(S)-6-(2-Hydroxy-2-methyl-propyl)-2-oxo-6-phenyl-[1,3]oxazinan-3-yl]-ethyl}-phenyl)-pyridazin-3-yl]-cyclopropanecarbonitrile], for which the pIC50 is 7.28.

For the compound `C[C@@H](c1ccc(-c2ccc(C3(C)CCN(C)C3=O)nc2)cc1)N1CC[C@](CC(C)(C)O)(c2ccccc2)OC1=O` (stereo partly drawn) [Example 57, 3-((S)-1-{4-[6-(1,3-Dimethyl-2-oxo-pyrrolidin-3-yl)-pyridin-3-yl]-phenyl}-ethyl)-(S)-6-(2-hydroxy-2-methyl-propyl)-6-phenyl-[1,3]oxazinan-2-one], the pIC50 was 7.54.

As to `C[C@@H](c1ccc(-c2ccc(C3(C(N)=O)CC3)nc2)cc1)N1CC[C@](CC(C)(C)O)(c2ccccc2)OC1=O` [Example 3, 1-[5-(4-{(S)-1-[(S)-6-(2-Hydroxy-2-methyl-propyl)-2-oxo-6-phenyl-[1,3]oxazinan-3-yl]-ethyl}-phenyl)-pyridin-2-yl]-cyclopropanecarboxylic acid amide], the pIC50 is 7.41.

`C[C@@H](c1ccc(-c2ccnc(C3(C(=O)O)CC3)c2)cc1)N1CC[C@](CC(C)(C)O)(c2ccccc2)OC1=O` [Example 45, 1-[4-(4-{(S)-1-[(S)-6-(2-Hydroxy-2-methyl-propyl)-2-oxo-6-phenyl-[1,3]oxazinan-3-yl]-ethyl}-phenyl)-pyridin-2-yl]-cyclopropanecarboxylic acid]: the negative-log IC50 (pIC50) is 6.73.

Regarding `C[C@@H](c1ccc(-c2ccc(C3CCN(C)C3=O)nc2)cc1)N1CC[C@](CC(C)(C)O)(c2ccccc2)OC1=O` (stereo partly drawn) [Example 52, (S)-6-(2-Hydroxy-2-methyl-propyl)-3-((S)-1-{4-[6-(1-methyl-2-oxo-pyrrolidin-3-yl)-pyridin-3-yl]-phenyl}-ethyl)-6-phenyl-[1,3]oxazinan-2-one], the pIC50 was 7.38.

Regarding `C[C@@H](c1ccc(-c2ccc(C3(C(N)=O)CCOCC3)nc2)cc1)N1CC[C@](CC(C)(C)O)(c2ccccc2)OC1=O` [Example 50, 4-[5-(4-{(S)-1-[(S)-6-(2-Hydroxy-2-methyl-propyl)-2-oxo-6-phenyl-[1,3]oxazinan-3-yl]-ethyl}-phenyl)-pyridin-2-yl]-tetrahydro-pyran-4-carboxylic acid amide], the pIC50 was 7.14.

Take `C[C@@H](c1ccc(-c2ccc(C3(C(=O)O)CC3)nn2)cc1)N1CC[C@](CC(C)(C)O)(c2ccccc2)OC1=O` [Example 8, 1-[6-(4-{(S)-1-[(S)-6-(2-Hydroxy-2-methyl-propyl)-2-oxo-6-phenyl-[1,3]oxazinan-3-yl]-ethyl}-phenyl)-pyridazin-3-yl]-cyclopropanecarboxylic acid]: the pIC50 is 6.74.

As to `C[C@@H](c1ccc(-c2ccc(C3(C(N)=O)CCC3)nc2)cc1)N1CC[C@](CC(C)(C)O)(c2ccccc2)OC1=O` [Example 51, 1-[5-(4-{(S)-1-[(S)-6-(2-Hydroxy-2-methyl-propyl)-2-oxo-6-phenyl-[1,3]oxazinan-3-yl]-ethyl}-phenyl)-pyridin-2-yl]-cyclobutanecarboxylic acid amide], the pIC50 was 7.10.

As to `CCOC(=O)C1(c2cc(-c3ccc([C@H](C)N4CC[C@](CC(C)(C)O)(c5ccccc5)OC4=O)cc3)ccn2)CC1` [Example 44, 1-[4-(4-{(S)-1-[(S)-6-(2-Hydroxy-2-methyl-propyl)-2-oxo-6-phenyl-[1,3]oxazinan-3-yl]-ethyl}-phenyl)-pyridin-2-yl]-cyclopropanecarboxylic acid ethyl ester], the pIC50 was 6.74.
